Experimental data as given in PMC5447332 (Targeted Oncology, 2017).
Several values for one entry are separate records, joined by “and”; a condition that tells them apart may be missing. Equal values may be shown once. Entries after “also recorded” stand apart in the source; their conditions may differ. Read-outs that look alike come from different tables or passages of the source.

Columns and labels:
[1] = BEZ235 200 mg twice daily; cited from earlier work
[2] = preclinical studies; ref not given; cited from earlier work
[3] = Pharmacokinetics of BEZ235 in plasma, phase Ib combination with everolimus; assay type: in vivo, human (patients with advanced solid tumors); details: for Apparent clearance, CL/F / Cmax / Dose / half-life / AUC(0-t) / AUC(0-inf) / Cmax / Tmax: plasma; for half-life / AUC(0-t) / AUC(0-inf) / Cmax / Tmax: human
[4] = Pharmacokinetics of everolimus in whole blood when co-administered with BEZ235; assay type: in vivo, human (patients with advanced solid tumors)
[5] = cited from earlier work
[6] = whole blood; ref not given; cited from earlier work
[7] = BEZ235 200 mg/d + everolimus 2.5 mg/d oral, day 1, mean ± SE
[8] = BEZ235 200 mg/d + everolimus 2.5 mg/d oral, day 28, mean ± SE
[9] = BEZ235 400 mg/d + everolimus 2.5 mg/d oral, day 1, mean ± SE
[10] = BEZ235 400 mg/d + everolimus 2.5 mg/d oral, day 28, mean ± SE
[11] = BEZ235 800 mg/d + everolimus 2.5 mg/d oral, day 1, mean ± SE
[12] = BEZ235 800 mg/d + everolimus 2.5 mg/d oral, day 28, mean ± SE
[13] = po, BEZ235 200 mg/d + everolimus 2.5 mg/d oral, day 1, mean ± SE
[14] = po, BEZ235 200 mg/d + everolimus 2.5 mg/d oral, day 28, mean ± SE
[15] = po, BEZ235 400 mg/d + everolimus 2.5 mg/d oral, day 1, mean ± SE
[16] = po, BEZ235 400 mg/d + everolimus 2.5 mg/d oral, day 28, mean ± SE
[17] = po, BEZ235 800 mg/d + everolimus 2.5 mg/d oral, day 1, mean ± SE
[18] = po, BEZ235 800 mg/d + everolimus 2.5 mg/d oral, day 28, mean ± SE
[19] = everolimus 2.5 mg/d oral + BEZ235 200-800 mg/d, day 1, whole blood, mean ± SE

For `Cn1c(=O)n(-c2ccc(C(C)(C)C#N)cc2)c2c3cc(-c4cnc5ccccc5c4)ccc3ncc21` [BEZ235, dactolisib], the AUC0-24 [1] is listed as 752.9 ng·h/mL, the Aqueous solubility [2] is listed as “poor” and the “Apparent clearance, CL/F” value [3, 7] is listed as 629.6 ± 278.1 L/h. The “Cmax / Dose” value [3, 7] was 0.2 ng/mL/mg and 0.2 ± 0.1 ng/mL/mg, the “Apparent clearance, CL/F” value [3, 8] was 116.3 ± 24.4 L/h and the “Cmax / Dose” value [3, 8] was 1.1 ± 0.6 ng/mL/mg. The “Apparent clearance, CL/F” value [3, 9] was 644.3 ± 192.9 L/h, the “Cmax / Dose” value [3, 9] was 0.3 ng/mL/mg and 0.3 ± 0.1 ng/mL/mg and the “Apparent clearance, CL/F” value [3, 10] was 309.3 ± 241.3 L/h. For the same molecule, the “Cmax / Dose” value [3, 10] was 0.6 ± 0.5 ng/mL/mg, the “Apparent clearance, CL/F” value [3, 11] was 773.9 ± 262.1 L/h and the “Cmax / Dose” value [3, 11] was 0.3 ng/mL/mg and 0.3 ± 0.1 ng/mL/mg. For the same molecule, the “Apparent clearance, CL/F” value [3, 12] was 355.9 ± 246.6 L/h, the “Cmax / Dose” value [3, 12] was 1.1 ± 0.7 ng/mL/mg and the “Drug levels at steady state relative to single dose administration” value ([3]; BEZ235 200-800 mg) was about 3 fold. It also gave a half-life ([3]; oral, Steady-state half-life, range over 200-800 mg/day) of 15 to 43 h, an AUC(0-t) ([3]; po, AUC 0-24, BEZ235 200 mg/d + everolimus 2.5 mg/d oral, day 1, mean ± SE) of 433 ± 96 ng·h/mL and an AUC(0-t) ([3]; po, AUC 0-24, BEZ235 200 mg/d + everolimus 2.5 mg/d oral, day 28, mean ± SE) of 1470 ± 515 ng·h/mL. The AUC(0-t) ([3]; po, AUC 0-24, BEZ235 400 mg/d + everolimus 2.5 mg/d oral, day 1, mean ± SE) was 741 ± 171 ng·h/mL, the AUC(0-t) ([3]; po, AUC 0-24, BEZ235 400 mg/d + everolimus 2.5 mg/d oral, day 28, mean ± SE) was 1460 ± 1250 ng·h/mL and the AUC(0-t) ([3]; po, AUC 0-24, BEZ235 800 mg/d + everolimus 2.5 mg/d oral, day 1, mean ± SE) was 2080 ± 666 ng·h/mL. The AUC(0-t) ([3]; po, AUC 0-24, BEZ235 800 mg/d + everolimus 2.5 mg/d oral, day 28, mean ± SE) was 7800 ± 5610 ng·h/mL, the AUC(0-inf) [3, 13] was 468 ± 118 ng·h/mL and the AUC(0-inf) [3, 14] was 1490 ± 691 ng·h/mL. It also gave an AUC(0-inf) [3, 15] of 831 ± 163 ng·h/mL, an AUC(0-inf) [3, 16] of 2710 ± 2340 ng·h/mL and an AUC(0-inf) [3, 17] of 2170 ± 675 ng·h/mL. For the same molecule, the AUC(0-inf) [3, 18] was 8880 ± 6590 ng·h/mL, the Cmax [3, 13] was 45.2 ± 11.4 ng/mL and the Cmax [3, 14] was 214 ± 114 ng/mL. The Cmax [3, 15] was 102 ± 22.4 ng/mL, the Cmax [3, 16] was 227 ± 198 ng/mL and the Cmax [3, 17] was 243 ± 52.7 ng/mL. It also gave a Cmax [3, 18] of 880 ± 570 ng/mL, a half-life ([3]; po, Terminal half-life, BEZ235 200 mg/d + everolimus 2.5 mg/d oral, day 1, mean ± SE) of 3.2 ± 1 h and a half-life ([3]; po, Terminal half-life, BEZ235 200 mg/d + everolimus 2.5 mg/d oral, day 28 (steady state), mean ± SE) of 19.2 ± 2.5 h. It also gave a half-life ([3]; po, Terminal half-life, BEZ235 400 mg/d + everolimus 2.5 mg/d oral, day 1, mean ± SE) of 8.6 ± 1.5 h, a half-life ([3]; po, Terminal half-life, BEZ235 400 mg/d + everolimus 2.5 mg/d oral, day 28 (steady state), mean ± SE) of 43.4 ± 10.8 h and a half-life ([3]; po, Terminal half-life, BEZ235 800 mg/d + everolimus 2.5 mg/d oral, day 1, mean ± SE) of 5.9 ± 0.7 h. The half-life ([3]; po, Terminal half-life, BEZ235 800 mg/d + everolimus 2.5 mg/d oral, day 28 (steady state), mean ± SE) was 15 ± 6.4 h, the Tmax [3, 13] was 3.8 ± 1.6 h and the Tmax [3, 14] was 2.7 ± 0.7 h. The Tmax [3, 15] was 2.5 ± 0.9 h, the Tmax [3, 16] was 1.5 ± 0.5 h and the Tmax [3, 17] was 2.6 ± 0.8 h. For the same molecule, the Tmax [3, 18] was 2 h, the “Accumulation higher than anticipated” value ([3]; multiple dosing, day 28) was 2–3 fold and the “Oral bioavailability (oral availability)” value ([3]; patients, SDS sachet, this study) was “quite low; also recorded: remained low”. It also gave an Average plasma concentration ([3]; steady state, doses of 200 to 800 mg/day) of 61 to 324 ng/mL.
With `CO[C@H]1C[C@@H]2CC[C@@H](C)[C@@](O)(O2)C(=O)C(=O)N2CCCC[C@H]2C(=O)O[C@H]([C@H](C)C[C@@H]2CC[C@@H](OCCO)[C@H](OC)C2)CC(=O)[C@H](C)/C=C(\C)[C@@H](O)[C@@H](OC)C(=O)[C@H](C)C[C@H](C)/C=C/C=C/C=C/1C` [Everolimus, everolimus] the “Increase in dose-normalized AUC0-24 (exposure), combination with BEZ235 compared to everolimus alone” value ([4]; everolimus 2.5 mg/d + BEZ235 vs reported everolimus alone (ref 23)) was 1.7 fold, the “Apparent clearance, CL/F” value [4, 19] was 24.76 ± 2.91 L/h and the “Cmax / Dose” value [4, 19] was 5.63 ± 0.6 ng/mL/mg. For the same molecule, the “Cmax / Dose” value ([4]; everolimus 2.5 mg/d oral + BEZ235 200-800 mg/d, day 28, whole blood, mean ± SE) was 12.67 ± 2.96 ng/mL/mg, the Reported everolimus clearance ([5]; 5 mg dosed alone) was 21.3 L/h and the Reported everolimus clearance ([5]; 10 mg dosed alone) was 27.3 L/h. The “Median Tmax” value ([5]; everolimus after oral administration, ref not given) was 1 to 2 h, the “Dose-normalized Cmax” value ([5]; everolimus dosed alone, cancer patients) was 6.3 ng/mL and the Oral bioavailability ([5]; everolimus, ref not given) was “low”. For the same molecule, the Binding to erythrocytes [6] was 85%.
